The text below walks through data of ChEMBL document CHEMBL1671865, “Clostridium difficile infections in a Canadian tertiary care hospital before and during a regional epidemic associated with the BI/NAP1/027 strain” (2008).

What all share (format): functional
In assay [1] the test system is Clostridioides difficile. The assay can be described thus: Antimicrobial activity against Clostridium difficile harboring other ribotypes by CLSI agar dilution method.
In assay [2] the test system is Clostridioides difficile. The assay can be described thus: Antimicrobial activity against Clostridium difficile harboring ribotype 027 by CLSI agar dilution method.
Assay [3] relates to Clostridioides difficile. The assay can be described thus: Antimicrobial activity against Clostridium difficile harboring ribotype 001 by CLSI agar dilution method.

≈ marks a conversion by molar mass, not a printed value.

In the assay on Clostridioides difficile [1], `CCC[C@@H]1C[C@@H](C(=O)N[C@@H]([C@H]2O[C@H](SC)[C@H](O)[C@@H](O)[C@H]2O)[C@H](C)Cl)N(C)C1` [CLINDAMYCIN] came in with an MIC50 of 4 µg/mL (≈ 9.41 µM) and an MIC90 of 8 µg/mL (≈ 18.8 µM). In the assay on Clostridioides difficile [2], this molecule showed an MIC50 of 4 µg/mL (≈ 9.41 µM) and an MIC90 of 8 µg/mL (≈ 18.8 µM). In the assay with Clostridioides difficile [3], the MIC is more than 64 µg/mL, the MIC50 is more than 64 µg/mL and the MIC90 was more than 64 µg/mL.
On to `CN[C@H](CC(C)C)C(=O)N[C@H]1C(=O)N[C@@H](CC(N)=O)C(=O)N[C@H]2C(=O)N[C@H]3C(=O)N[C@H](C(=O)N[C@H](C(=O)O)c4cc(O)cc(O)c4-c4cc3ccc4O)[C@H](O)c3ccc(c(Cl)c3)Oc3cc2cc(c3O[C@@H]2O[C@H](CO)[C@@H](O)[C@H](O)[C@H]2O[C@H]2C[C@](C)(N)[C@H](O)[C@H](C)O2)Oc2ccc(cc2Cl)[C@H]1O` [VANCOMYCIN], for which the MIC50 was determined as 1 µg/mL (≈ 0.69 µM) in the assay with Clostridioides difficile [1], 0.5 µg/mL (≈ 0.345 µM) in the assay on Clostridioides difficile [2] and 1 µg/mL (≈ 0.69 µM) with Clostridioides difficile [3]. In addition, the MIC90 in the assay on Clostridioides difficile [1] was 1 µg/mL (≈ 0.69 µM); in the assay with Clostridioides difficile [2] it was 2 µg/mL (≈ 1.38 µM); with Clostridioides difficile [3], 1 µg/mL (≈ 0.69 µM). Also, in the assay with Clostridioides difficile [2], 0.5 µg/mL (≈ 0.345 µM) was the least that counted as inhibitory (MIC).
With RAMOPLANIN, the MIC50 against Clostridioides difficile [1] came out at 0.25 µg/mL; with Clostridioides difficile [2], 0.12 µg/mL; with Clostridioides difficile [3] it was 0.25 µg/mL. The MIC90 against Clostridioides difficile [1], against Clostridioides difficile [2] and in the assay with Clostridioides difficile [3] was 0.25 µg/mL in each case.
Consider `CCS(=O)(=O)CCn1c([N+](=O)[O-])cnc1C` [TINIDAZOLE], for which the MIC50 against Clostridioides difficile [1] is 0.25 µg/mL (≈ 1.01 µM); against Clostridioides difficile [2] it was 1 µg/mL (≈ 4.04 µM); against Clostridioides difficile [3] it was 0.5 µg/mL (≈ 2.02 µM). Besides, the results for the MIC90 against Clostridioides difficile [1], against Clostridioides difficile [2] and against Clostridioides difficile [3] were 0.5 µg/mL (≈ 2.02 µM), 1 µg/mL (≈ 4.04 µM) and 0.5 µg/mL (≈ 2.02 µM), respectively.
As for `COc1c(N2CCNC(C)C2)c(F)cc2c(=O)c(C(=O)O)cn(C3CC3)c12` (stereo not drawn) [GATIFLOXACIN], the MIC50 with Clostridioides difficile [1] was 2 µg/mL (≈ 5.33 µM); against Clostridioides difficile [2], more than 32 µg/mL; in the assay on Clostridioides difficile [3] it was 32 µg/mL (≈ 85.2 µM). Moreover, the MIC90 with Clostridioides difficile [1] was more than 32 µg/mL; against Clostridioides difficile [2] it was more than 32 µg/mL; against Clostridioides difficile [3] it was 32 µg/mL (≈ 85.2 µM).
For `Cc1ncc([N+](=O)[O-])n1CCO` [METRONIDAZOLE], the MIC50 against Clostridioides difficile [1] stood at 0.25 µg/mL (≈ 1.46 µM); against Clostridioides difficile [2] it was 1 µg/mL (≈ 5.84 µM); in the assay with Clostridioides difficile [3], 0.5 µg/mL (≈ 2.92 µM). The MIC90 worked out at 0.5 µg/mL (≈ 2.92 µM) in the assay with Clostridioides difficile [1], 1 µg/mL (≈ 5.84 µM) with Clostridioides difficile [2] and 0.5 µg/mL (≈ 2.92 µM) in the assay with Clostridioides difficile [3].
